In patent US7192942B2, “Process for production of crystals of 11μ-benzaldoxim-estra-4,9-diene derivatives, crystals obtained thereby and pharmaceutical preparations containing them” (Schering AG, priority 2002, dated 2007):
Each block holds one compound with its values, some of them ahead of it.

Legend:
[1] = in comparison to RU 486 (mifeprison); cited from earlier work
[2] = Active ingredient release (dissolution) of 1 mg capsules and tablets; assay type: physicochemical; conditions: 0.3% SDS in water, paddle, 100 rpm
Method: The release values were compared in a test medium, which comprises 0.3% SDS in water, with paddle stirrIng, 100 rpm.
Active Ingredient Release:
Active ingredient release measured in 1000 mL water with 0.3% sodium dodecyl sulfate, 100 rpm
Content Determination by HPLC with external calibration
Column: LiChrosphere 5μ RP-18 encapped, 150×3 mm
Eluent: acetonitrile/water=45/55

progesterone receptor = biological target: T1, progesterone receptor (Homo sapiens, UniProt P06401); conditions: in comparison to RU 486; cited from earlier work
T1 sequence (P06401 1-933): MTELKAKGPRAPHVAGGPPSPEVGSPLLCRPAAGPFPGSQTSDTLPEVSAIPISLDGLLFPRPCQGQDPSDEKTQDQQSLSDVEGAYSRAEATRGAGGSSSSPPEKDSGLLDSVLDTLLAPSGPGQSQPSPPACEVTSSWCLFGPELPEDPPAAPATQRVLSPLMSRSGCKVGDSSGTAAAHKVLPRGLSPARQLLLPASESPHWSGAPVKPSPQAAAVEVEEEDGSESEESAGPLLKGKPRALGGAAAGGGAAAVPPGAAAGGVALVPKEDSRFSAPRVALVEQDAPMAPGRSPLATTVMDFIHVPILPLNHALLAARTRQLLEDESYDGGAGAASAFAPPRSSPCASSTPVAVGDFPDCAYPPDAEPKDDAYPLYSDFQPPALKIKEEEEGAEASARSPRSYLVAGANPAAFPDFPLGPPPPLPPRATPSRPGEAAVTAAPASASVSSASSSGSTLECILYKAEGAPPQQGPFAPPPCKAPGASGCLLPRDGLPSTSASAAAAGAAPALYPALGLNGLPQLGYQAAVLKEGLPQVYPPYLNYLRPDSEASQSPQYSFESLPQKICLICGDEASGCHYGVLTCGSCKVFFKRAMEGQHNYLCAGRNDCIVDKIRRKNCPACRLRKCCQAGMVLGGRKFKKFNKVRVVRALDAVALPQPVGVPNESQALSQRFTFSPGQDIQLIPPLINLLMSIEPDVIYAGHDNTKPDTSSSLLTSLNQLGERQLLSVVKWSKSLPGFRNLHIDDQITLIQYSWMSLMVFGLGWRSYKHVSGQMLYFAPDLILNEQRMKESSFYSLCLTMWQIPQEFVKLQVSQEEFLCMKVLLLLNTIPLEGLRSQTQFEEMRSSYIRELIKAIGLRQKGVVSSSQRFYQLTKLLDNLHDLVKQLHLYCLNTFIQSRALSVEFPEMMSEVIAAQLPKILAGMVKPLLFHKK

[3] = biological target: T2, progesterone receptor (PR) (Homo sapiens, UniProt P06401); conditions: cited from earlier work
T2 sequence (P06401 1-933): T1 sequence (P06401 1-933)

[4] = Stability of medicinal preparations under ICH conditions; assay type: physicochemical; conditions: 40° C., 70% relative humidity; decomposition of carbamate to nitrile
Description: The carbamate functional group of the above-mentioned 11β-benz-aldoxim-estra-4,9-diene derivative decomposes to form a nitrile by splitting off ethylamine and CO2.

[5] = 1 mg capsule, microcrystalline J956, particle diameter X50 3.4 μm, X100 25 μm
[6] = 1 mg capsule, microcrystalline J956, particle diameter X50 5.2 μm, X100 30 μm
[7] = 1 mg capsule, microcrystalline J956, particle diameter X50 6.6 μm, X100 43 μm
[8] = 1 mg capsule, microcrystalline J956, particle diameter X50 8.7 μm, X100 43 μm
[9] = 1 mg capsule, microcrystalline J956, particle diameter X50 14.1 μm, X100 87 μm
[10] = 1 mg tablet, microcrystalline J956, particle diameter X50 10.6 μm, X100 73 μm
[11] = 1 mg capsule with micronized effective ingredient J956
[12] = 1 mg tablet with micronized effective ingredient J956

RELEASE in % 0 min [2, 5]: 0%
RELEASE in % 10 min [2, 5]: 90.7%
RELEASE in % 20 min [2, 5]: 97.3%
RELEASE in % 30 min [2, 5]: 98.1%
RELEASE in % 45 min [2, 5]: 99.9%
RELEASE in % 0 min [2, 6]: 0%
RELEASE in % 10 min [2, 6]: 89.8%
RELEASE in % 20 min [2, 6]: 93.5%
RELEASE in % 30 min [2, 6]: 93.4%
RELEASE in % 45 min [2, 6]: 95.6%
RELEASE in % 0 min [2, 7]: 0%
RELEASE in % 10 min [2, 7]: 93.2%
RELEASE in % 20 min [2, 7]: 95.9%
RELEASE in % 30 min [2, 7]: 96.7%
RELEASE in % 45 min [2, 7]: 96.8%
RELEASE in % 0 min [2, 8]: 0%
RELEASE in % 10 min [2, 8]: 93.5%
RELEASE in % 20 min [2, 8]: 96.7%
RELEASE in % 30 min [2, 8]: 98.5%
RELEASE in % 45 min [2, 8]: 99.7%
RELEASE in % 0 min [2, 9]: 0%
RELEASE in % 10 min [2, 9]: 90.2%
RELEASE in % 20 min [2, 9]: 95.3%
RELEASE in % 30 min [2, 9]: 96.0%
RELEASE in % 45 min [2, 9]: 96.3%
RELEASE in % 0 min [2, 10]: 0%
RELEASE in % 10 min [2, 10]: 73.7%
RELEASE in % 20 min [2, 10]: 90.3%
RELEASE in % 30 min [2, 10]: 91.85%
RELEASE in % 45 min [2, 10]: 96.6%
Compound: CCNC(=O)ON=Cc1ccc(C2CC3(C)C(CCC3(COC)OC)C3CCC4=CC(=O)CCC4=C23)cc1 (stereo not drawn) [J956, 11β-{4-[(ethylamino-carbonyl)oximinomethyl]phenyl}-17β-methoxy-17α-methoxymethyl-estra-4,9-dien-3-one]
antiglucocorticoid activity [1]: considerably reduced antiglucocorticoid activity
activity at the progesterone receptor (progesterone receptor): same activity as RU 486
activity in vivo at the progesterone receptor (PR) [3]: both agonistic and also antagonistic activity

stability of effective ingredient in medicinal preparations under ICH [4]: not sufficiently stable
RELEASE in % 0 min [2, 11]: 0%
RELEASE in % 10 min [2, 11]: 92.1%
RELEASE in % 20 min [2, 11]: 94.3%
RELEASE in % 30 min [2, 11]: 94.6%
RELEASE in % 45 min [2, 11]: 94.9%
RELEASE in % 0 min [2, 12]: 0%
RELEASE in % 10 min [2, 12]: 92.1%
RELEASE in % 20 min [2, 12]: 94.3%
RELEASE in % 30 min [2, 12]: 94.6%
RELEASE in % 45 min [2, 12]: 94.9%
Compound: CCNC(=O)O/N=C/c1ccc([C@H]2C[C@@]3(C)[C@@H](CC[C@]3(COC)OC)[C@@H]3CCC4=CC(=O)CCC4=C32)cc1 [Micronizate]
